# Test results from patent US12722014B2, “Method of treating drug resistant hypertension and heart failure with preserved ejection fraction by combined drug treatment with baropacing and beta blockers” (BaroPace, Inc., priority 2020, dated 2026).
# Columns and labels:
# [1] = Prospective study of BaroPacing (raising right atrial pacing rate) in 14 subjects with hypertension and dual chamber pacemakers; assay type: in vivo, human; settings: 8 patients taking either Metoprolol or Carvedilol vs 6 subjects not taking any beta blockers (p<0.004 in the latter)
# Text: I have prospectively studied 14 subjects with hypertension and dual chamber pacemakers, 6 not taking any beta blockers, and 8 taking either metoprolol or carvedilol. […] PressurePacing or BaroPacing is defined to include the algorithmically controlled pacing methodologies and programmable pacemakers as disclosed in PCT/US19/59703; PCT/US20/025447; PCT/US21/42622; and US Provisional filing 63/123,951, each and all incorporated herein by reference.
# [2] = Published retrospective and prospective study of BaroPacing by BaroPace's clinical research team; assay type: in vivo, human; settings: current treatment with the beta blocker
# Text: Based on the observation that pacemaker implant in patients with drug resistant hypertension (DRH) and heart failure with preserved ejection fraction (HFpEF) lowers blood pressure and improves clinical outcomes, BaroPace, Inc. is developing technology to treat drug resistant hypertension and (HFpEF) by regulating cardiac pacemakers in real time in response to blood pressure (BaroPacing™). […] The BaroPacing research model offers a now-proven cost efficient means of screening ISA drugs such as pindolol and acebutolol to test this hypothesis. If proven true, besides a new patentable indication, such results could lead to a treatment paradigm shift and clinical revitalization of ISA beta blockers.
Structure (SMILES),significant lowering of systolic blood pressure (>10 mmHg) by BaroPacing [1],beneficial blood pressure lowering effects of BaroPacing [2],improvement in New York Heart Association Class seen in HFpEF with BaroPacing [2]
COc1ccccc1OCCNCC(O)COc1cccc2[nH]c3ccccc3c12 (stereo not drawn) [Carvedilol],lost,substantially blunts,substantially blunts
"COCCc1ccc(OCC(O)CNC(C)C)cc1 (stereo not drawn) [Metoprolol, metoprolol]",lost,substantially blunts,substantially blunts
